Source: patent US20040034067A1, “Novel method of treatment” (priority 1999, published 2004)

Tests used:
Assay type in all cases: cell-based
Gelatinase B mRNA = Gelatinase B mRNA expression in attached human neutrophils; conditions: 1 μM of compound; 4 hours after neutrophil attachment; human neutrophils (FIG. 1B)
Method: (FIG. 1B): That the increase in Gelatinase B mRNA expression observed 4 hours after neutrophil attachment was reduced by treatment with 1 μM of Compound (I). Time zero (T0) refers to expression in naive human neutrophils prior to attachment.

MMP-9 release = assay: Inhibition of MMP-9 release from human neutrophils (human MMP-9 ELISA); conditions: Neutrophil, RPMI 1640 plus 1% BSA, 4 hours, 4 individuals, 4-parameter logistic curve fit
Method: FIG. 2: Inhibition of MMP-9 release.by Compound (I)
Neutrophils were isolated by countercurrent centrifugal elutriation to a purity of at least 98% and were maintained in RPMI 1640 plus 1% BSA. Cells were cultured in 48 well plates and attached to the wells within 1 hour of plating. Compound (I) (referred to as“BRL49653” in FIG. 2) was included from the beginning of the experiment. After 4 hours the media was removed and a human MMP-9 ELISA assay (Amersham) was performed. Data (from 4 different individuals) were not suitable for pooling directly, so for the purposes of the figure they were normalised to percentage of no compound control. Asterisks denote p<0.05 using a paired Student's t-test performed on the raw data prior to normalisation.

PPARgamma mRNA = PPARgamma mRNA expression during human neutrophil attachment to culture dishes; conditions: data taken at 1 and 4 hours; human neutrophils (FIG. 1A)

Row | Compound | increase in Gelatinase B mRNA expression after neutrophil attachment (Gelatinase B mRNA) | IC50 (MMP-9 release) [µM] | PPARgamma mRNA during human neutrophil attachment (PPARgamma mRNA)
1 | CN(CCOc1ccc(CC2SC(=O)NC2=O)cc1)c1ccccn1 (stereo not drawn) [Compound (I), 5-[4-[2-(N-methyl-N-(2-pyridyl)amino)ethoxy]benzyl]thiazolidine-2,4-dione] | reduced | 0.0106 | –
2 | GM-CSF: GM-CSF, treatment that further enhanced PPARgamma mRNA in attached human neutrophils | – | – | further enhanced
